This assay has as its system orthotopic human breast carcinoma xenograft (MCF10DCIS). Briefly: dynamic PET/CT imaging, pharmacokinetics and biodistribution in tumor-bearing mice. In kind it is in vivo, immunedeficient nu/nu mice. The following applies: 10 mg/kg i.v. 15 min prior to [^18F]FPDTG; at 60 min post injection. The procedure: A single (unilateral) orthotopic breast carcinoma xenograft was established in immunedeficient nu/nu mice by injection of human breast ductal carcinoma in situ cells (MCF10DCIS) in Matrigel into one of the upper mammary fat pad.
Tumor-bearing mice (˜20-25 g) were anesthetized using inhalation of 2% isoflurane in oxygen, and their body temperature maintained at 38° C. by a heating pad with a feedback temperature control. […] Dynamic PET images were acquired in list-mode and reconstructed using OSEM algorithm at multiple time frames post radiotracer administration (0-2, 2-4, 4-6, 6-8, 8-10, 10-20, 20-30, 30-40, 40-50, 50-60 min). Thereafter, while still fixed to the positioning bed, the mice were moved with the bed into the gantry of INVEON SPECT/CT (Siemens), and CT images were acquired over the whole body area for attenuation correction of PET images and for production of PET/CT images. PET/CT fusion images were generated and analyzed in a similar manner as when studying rats.

As for `OC[C@H]1O[C@@H](S[C@@H]2O[C@H](CO)[C@H](O)[C@H](n3cc(-c4cccc(F)c4)nn3)[C@H]2O)[C@H](O)[C@@H](n2cc(-c3cccc(F)c3)nn2)[C@H]1O` [FPTDG, bis-{3-deoxy-3-[4-(3-fluorophenyl)-1H-1,2,3-triazol-1-yl]-β-D-galactopyranosyl)sulfane, reference compound], the “blockade of the radiotracer uptake and retention in DCIS lesion” value is on record as > 90%.

The record behind these values is patent publication US10799522B2, “Compositions and methods relating to galectin detection” (Wayne State University, priority 2015, dated 2020).
